According to patent publication US20240051970A1, “COMPOUNDS AND COMPOSITIONS FOR TREATING CONDITIONS ASSOCIATED WITH STING ACTIVITY” (IFM Due, Inc., priority 2020, published 2024):

Molecular target: T1, hSTING (Homo sapiens, UniProt Q86WV6, G230A/H232R/R293Q/R71H)
T1 construct: host or cells: THP1-Dual KO-IFNAR2 cells
Experiment: STING reporter assay (luciferase) in THP1-Dual KO-IFNAR2 cells activated with 2'3'cGAMP
Assay type: cell-based
Details: 15 μM 2'3'cGAMP, 24 h
Method: STING pathway activation by the compounds described herein was measured using THP1-Dual™ cells (KO-IFNAR2).
THP1-Dual™ KO-IFNAR2 Cells (obtained from invivogen) were maintained in RPMI, 10% FCS, 5 ml P/S, 2 mM L-glut, 10 mM Hepes, and 1 mM sodium pyruvate. Compounds were spotted in empty 384 well tissue culture plates (Greiner 781182) by Echo for a final concentration of 0.0017-100 μM. Cells were plated into the TC plates at 40 μL per well, 2×10E6 cells/mL. For activation with STING ligand, 2′3′cGAMP (MW 718.38, obtained from Invivogen), was prepared in Optimem media.
The following solutions were prepared for each 1×384 plate: • Solution A: 2 mL Optimem with one of the following stimuli: • 60 μL of 10 mM 2′3′cGAMP 4 150 μM stock • Solution B: 2 mL Optimem with 60 μL Lipofectamine 2000 4 Incubate 5 min at RT
2 mL of solution A and 2 ml Solution B was mixed and incubated for 20 min at room temperature (RT). 20 μL of transfection solution (A+B) was added on top of the plated cells, with a final 2′3′cGAMP concentration of 15 μM. The plates were then centrifuged immediately at 340 g for 1 minute, after which they were incubated at 37° C., 5% CO2, >98% humidity for 24 h. Luciferase reporter activity was then measured. EC50 values were calculated by using standard methods known in the art.
Luciferase reporter assay: 10 μL of supernatant from the assay was transferred to white 384-plate with flat bottom and squared wells. One pouch of QUANTI-Luc™ Plus was dissolved in 25 mL of water. 100 μL of QLC Stabilizer per 25 mL of QUANTI-Luc™ Plus solution was added. 50 μL of QUANTI-Luc™ Plus/QLC solution per well was then added. Luminescence was measured on a Platereader (e.g., Spectramax I3X (Molecular Devices GF3637001)).
Luciferase reporter activity was then measured. EC50 values were calculated by using standard methods known in the art.

T1 sequence (Q86WV6 whole entry R71H/G230A/H232R/R293Q): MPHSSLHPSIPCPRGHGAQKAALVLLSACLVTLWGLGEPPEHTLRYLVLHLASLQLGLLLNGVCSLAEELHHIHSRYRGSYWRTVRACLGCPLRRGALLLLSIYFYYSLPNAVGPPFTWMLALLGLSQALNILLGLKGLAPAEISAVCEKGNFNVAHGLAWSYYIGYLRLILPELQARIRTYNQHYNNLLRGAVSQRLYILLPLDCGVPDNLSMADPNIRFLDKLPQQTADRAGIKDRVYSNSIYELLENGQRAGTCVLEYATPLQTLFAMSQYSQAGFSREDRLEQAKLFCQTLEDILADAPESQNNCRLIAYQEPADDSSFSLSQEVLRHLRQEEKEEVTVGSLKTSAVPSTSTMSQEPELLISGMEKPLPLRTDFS

| Compound | EC50 [nM] |
| --- | --- |
| FC(F)(F)CN1CCC(c2ccc3[nH]c(Nc4cc(Cl)c5cc[nH]c5c4)nc3c2)CC1 [Compound 153, N-(4-chloro-1H-indol-6-yl)-5-[1-(2,2,2-trifluoroethyl)piperidin-4-yl]-1H-1,3-benzodiazol-2-amine] | 200 to 1000 |
| Clc1cc(Nc2nc3cc(C4CCOC4)ccc3[nH]2)cc2[nH]ccc12 (stereo not shown) [Compound 154, N-(4-chloro-1H-indol-6-yl)-5-(oxolan-3-yl)-1H-1,3-benzodiazol-2-amine] | 200 to 1000 |
| Clc1cc(Nc2nc3cc(-c4cnn(CC5CC5)c4)ccc3[nH]2)cc2[nH]ccc12 [Compound 156, N-(4-chloro-1H-indol-6-yl)-5-[1-(cyclopropylmethyl)-1H-pyrazol-4-yl]-1H-1,3-benzodiazol-2-amine] | 200 to 1000 |
| Clc1cc(Nc2nc3cc(-c4cnn(C5CCOCC5)c4)ccc3[nH]2)cc2[nH]ccc12 [Compound 159, N-(4-chloro-1H-indol-6-yl)-5-[1-(oxan-4-yl)-1H-pyrazol-4-yl]-1H-1,3-benzodiazol-2-amine] | 200 to 1000 |
| CN1CCC(c2ccc3[nH]c(Nc4cc(Cl)c5cc[nH]c5c4)nc3c2)CC1 [Compound 160, N-(4-chloro-1H-indol-6-yl)-5-(1-methylpiperidin-4-yl)-1H-1,3-benzodiazol-2-amine] | 5000 to 100000 |
| Clc1cc(Nc2nc3cc(C4CCOCC4)ccc3[nH]2)cc2[nH]ccc12 [Compound 161, N-(4-chloro-1H-indol-6-yl)-5-(oxan-4-yl)-1H-1,3-benzodiazol-2-amine] | 200 to 1000 |
| CC(C)(C)OC(=O)N1CCC(c2ccc3[nH]c(Nc4cc(Cl)c5cc[nH]c5c4)nc3c2)CC1 [Compound 162, tert-butyl 4-{2-[(4-chloro-1H-indol-6-yl)amino]-1H-1,3-benzodiazol-5-yl}piperidine-1-carboxylate] | 200 to 1000 |
| CC(C)CCc1ccc2[nH]c(Nc3cc(Cl)c4cc[nH]c4c3)nc2c1 [Compound 165, N-(4-chloro-1H-indol-6-yl)-5-(3-methylbutyl)-1H-1,3-benzodiazol-2-amine] | 200 to 1000 |
| Clc1cc(Nc2nc3cc(C4CCCCC4)ccc3[nH]2)cc2[nH]ccc12 [Compound 168, N-(4-chloro-1H-indol-6-yl)-5-cyclohexyl-1H-1,3-benzodiazol-2-amine] | 200 to 1000 |
| CS(=O)(=O)N1CCC(c2ccc3[nH]c(Nc4cc(Cl)c5cc[nH]c5c4)nc3c2)CC1 [Compound 171, N-(4-chloro-1H-indol-6-yl)-5-(1-methanesulfonylpiperidin-4-yl)-1H-1,3-benzodiazol-2-amine] | 200 to 1000 |
| O=C(C1CC1)N1CCC(c2ccc3[nH]c(Nc4cc(Cl)c5cc[nH]c5c4)nc3c2)CC1 [Compound 172, N-(4-chloro-1H-indol-6-yl)-5-(1-cyclopropanecarbonylpiperidin-4-yl)-1H-1,3-benzodiazol-2-amine] | 200 to 1000 |
| Fc1c[nH]c2cc(Nc3nc4cc(Cl)c(Cl)cc4[nH]3)ccc12 [Compound 174, 5,6-dichloro-N-(3-fluoro-1H-indol-6-yl)-1H-1,3-benzodiazol-2-amine] | 40 to 200 |
| Fc1c[nH]c2cc(Nc3nc4cc(C(F)(F)F)ccc4[nH]3)ccc12 [Compound 175, N-(3-fluoro-1H-indol-6-yl)-5-(trifluoromethyl)-1H-1,3-benzodiazol-2-amine] | 40 to 200 |

Results, then the compound that gave them:

| EC50 [nM] | Compound |
| --- | --- |
| 200 to 1000 | CC(C)n1cc(-c2ccc3[nH]c(Nc4cc(Cl)c5cc[nH]c5c4)nc3c2)cn1 [Compound 155, N-(4-chloro-1H-indol-6-yl)-5-[1-(propan-2-yl)-1H-pyrazol-4-yl]-1H-1,3-benzodiazol-2-amine] |
| 200 to 1000 | COCCn1cc(-c2ccc3[nH]c(Nc4cc(Cl)c5cc[nH]c5c4)nc3c2)cn1 [Compound 158, N-(4-chloro-1H-indol-6-yl)-5-[1-(2-methoxyethyl)-1H-pyrazol-4-yl]-1H-1,3-benzodiazol-2-amine] |
| 200 to 1000 | FC(F)n1cc(-c2ccc3[nH]c(Nc4cc(Cl)c5cc[nH]c5c4)nc3c2)cn1 [Compound 163, N-(4-chloro-1H-indol-6-yl)-5-[1-(difluoromethyl)-1H-pyrazol-4-yl]-1H-1,3-benzodiazol-2-amine] |
| 200 to 1000 | Clc1cc(Nc2nc3cc(-c4cnn(-c5ccccc5)c4)ccc3[nH]2)cc2[nH]ccc12 [Compound 164, N-(4-chloro-1H-indol-6-yl)-5-(1-phenyl-1H-pyrazol-4-yl)-1H-1,3-benzodiazol-2-amine] |
| 200 to 1000 | CC(C)(O)c1ccc(-c2ccc3[nH]c(Nc4cc(Cl)c5cc[nH]c5c4)nc3c2)cc1 [Compound 166, 2-(4-{2-[(4-chloro-1H-indol-6-yl)amino]-1H-1,3-benzodiazol-5-yl}phenyl)propan-2-ol] |
| 200 to 1000 | N#Cc1cncc(-c2ccc3[nH]c(Nc4cc(Cl)c5cc[nH]c5c4)nc3c2)c1 [Compound 167, 5-{2-[(4-chloro-1H-indol-6-yl)amino]-1H-1,3-benzodiazol-5-yl}pyridine-3-carbonitrile] |
| 200 to 1000 | COCc1cccc(-c2ccc3[nH]c(Nc4cc(Cl)c5cc[nH]c5c4)nc3c2)c1 [Compound 169, N-(4-chloro-1H-indol-6-yl)-5-[3-(methoxymethyl)phenyl]-1H-1,3-benzodiazol-2-amine] |
| 200 to 1000 | FC(F)(F)Oc1ccc(-c2ccc3[nH]c(Nc4cc(Cl)c5cc[nH]c5c4)nc3c2)cc1 [Compound 170, N-(4-chloro-1H-indol-6-yl)-5-[4-(trifluoromethoxy)phenyl]-1H-1,3-benzodiazol-2-amine] |
| 200 to 1000 | CC(C)(O)CCc1ccc2[nH]c(Nc3cc(Cl)c4cc[nH]c4c3)nc2c1 [Compound 173, 4-{2-[(4-chloro-1H-indol-6-yl)amino]-1H-1,3-benzodiazol-5-yl}-2-methylbutan-2-ol] |
